From article PMC5218480 (PLoS ONE, 2017)

System: MV-4-11 cells
Test: Gene expression microarray analysis (Affymetrix PrimeView) and GSEA
Type: cell-based, human
Design: RFU PODN (11730768_x_at) / Fold change /veh PODN (11730768_x_at) / RFU LINC00158 (11744669_a_at) / Fold change /veh LINC00158 (11744669_a_at) / RFU DUSP10 (11751237_a_at) / Fold change /veh DUSP10 (11751237_a_at) / RFU ID3 (11757404_x_at) / Fold change /veh ID3 (11757404_x_at) / RFU PLEKHG5 (11737974_s_at) / Fold change /veh PLEKHG5 (11737974_s_at) / RFU LRRC4B (11730491_at) / Fold change /veh LRRC4B (11730491_at) / RFU GIMAP4 (11747438_a_at) / Fold change /veh GIMAP4 (11747438_a_at) / RFU KRT8 (11758183_x_at) / Fold change /veh KRT8 (11758183_x_at) / RFU CNN1 (11734310_a_at) / Fold change /veh CNN1 (11734310_a_at) / RFU VPS37D (11726825_at) / Fold change /veh VPS37D (11726825_at) / RFU C10orf10 (11716522_x_at) / Fold change /veh C10orf10 (11716522_x_at) / RFU KIR2DL2 /// KIR2DL4 /// KIR2DL5A /// KIR2DL5B /// KIR2DS1 /// KIR2DS2 /// KIR2DS3 /// KIR2DS4 /// KIR3DL3 /// KIR3DL3 /// KIR3DS1 (11738374_at) / Fold change /veh KIR2DL2 /// KIR2DL4 /// KIR2DL5A /// KIR2DL5B /// KIR2DS1 /// KIR2DS2 /// KIR2DS3 /// KIR2DS4 /// KIR3DL3 /// KIR3DL3 /// KIR3DS1 (11738374_at) / RFU C1QL1 (11718748_at) / Fold change /veh C1QL1 (11718748_at) / RFU TMPRSS4 (11747572_a_at) / Fold change /veh TMPRSS4 (11747572_a_at) / RFU HAMP (11756126_x_at) / Fold change /veh HAMP (11756126_x_at) / RFU RNFT2 (11725882_a_at) / Fold change /veh RNFT2 (11725882_a_at) / RFU NR4A2 (11747474_a_at) / Fold change /veh NR4A2 (11747474_a_at) / RFU ABCC12 (11746883_a_at) / Fold change /veh ABCC12 (11746883_a_at) / RFU TMEM136 (11760407_x_at) / Fold change /veh TMEM136 (11760407_x_at) / RFU CLDN22 /// WWC2 (11732394_at) / Fold change /veh CLDN22 /// WWC2 (11732394_at) / RFU HLA-DPB1 (11760878_x_at) / Fold change /veh HLA-DPB1 (11760878_x_at) / RFU SPINT1 (11716480_a_at) / Fold change /veh SPINT1 (11716480_a_at) / RFU GAP43 (11754022_s_at) / Fold change /veh GAP43 (11754022_s_at) / RFU A4GNT (11735810_at) / Fold change /veh A4GNT (11735810_at) / RFU PRB3 (11715151_x_at) / Fold change /veh PRB3 (11715151_x_at) / RFU TUBB4B (11761932_at) / Fold change /veh TUBB4B (11761932_at) / RFU CAPN14 (11732068_a_at) / Fold change /veh CAPN14 (11732068_a_at) / RFU TMCC2 (11721928_a_at) / Fold change /veh TMCC2 (11721928_a_at) / RFU IRGQ (11745062_a_at) / Fold change /veh IRGQ (11745062_a_at) / RFU FAM174B (11720279_a_at) / Fold change /veh FAM174B (11720279_a_at) / RFU TMPRSS4 (11748680_a_at) / Fold change /veh TMPRSS4 (11748680_a_at) / RFU FAM212B (11763350_a_at) / Fold change /veh FAM212B (11763350_a_at) / RFU PLEKHG5 (11743358_a_at) / Fold change /veh PLEKHG5 (11743358_a_at) / RFU ZSCAN30 (11745921_a_at) / Fold change /veh ZSCAN30 (11745921_a_at) / RFU CMKLR1 (11741424_a_at) / Fold change /veh CMKLR1 (11741424_a_at) / RFU LOC101060620 /// MAPK8IP1 (11723275_at) / Fold change /veh LOC101060620 /// MAPK8IP1 (11723275_at) / RFU SPTSSB (11747773_x_at) / Fold change /veh SPTSSB (11747773_x_at) / RFU PRSS12 (11739890_at) / Fold change /veh PRSS12 (11739890_at) / RFU BIN1 (11741810_x_at) / Fold change /veh BIN1 (11741810_x_at) / RFU WNT11 (11732464_a_at) / Fold change /veh WNT11 (11732464_a_at) / RFU C10orf10 (11716521_a_at) / Fold change /veh C10orf10 (11716521_a_at) / RFU C5orf56 (11738089_at) / Fold change /veh C5orf56 (11738089_at) / RFU CYB561 (11721691_x_at) / Fold change /veh CYB561 (11721691_x_at) / RFU ANKRD19P (11752326_a_at) / Fold change /veh ANKRD19P (11752326_a_at) / RFU OR2T12 /// OR2T33 /// OR2T8 (11738714_s_at) / Fold change /veh OR2T12 /// OR2T33 /// OR2T8 (11738714_s_at) / RFU VCAN (11748164_a_at) / Fold change /veh VCAN (11748164_a_at) / RFU JSRP1 (11732532_at) / Fold change /veh JSRP1 (11732532_at) / RFU KRTAP10-11 (11738290_x_at) / Fold change /veh KRTAP10-11 (11738290_x_at) / RFU MYO3A (11730013_a_at) / Fold change /veh MYO3A (11730013_a_at) / RFU EBF3 (11725865_a_at) / Fold change /veh EBF3 (11725865_a_at) / RFU CAMK2N1 (11719241_x_at) / Fold change /veh CAMK2N1 (11719241_x_at) / RFU C5orf56 (11738088_a_at) / Fold change /veh C5orf56 (11738088_a_at) / RFU OLFML3 (11715873_a_at) / Fold change /veh OLFML3 (11715873_a_at) / RFU LOC100653217 /// NTM (11731650_a_at) / Fold change /veh LOC100653217 /// NTM (11731650_a_at) / RFU MAPK11 (11762145_a_at) / Fold change /veh MAPK11 (11762145_a_at) / RFU FIZ1 (11724087_x_at) / Fold change /veh FIZ1 (11724087_x_at) / RFU OASL (11726364_x_at) / Fold change /veh OASL (11726364_x_at) / RFU SOX15 (11748057_x_at) / Fold change /veh SOX15 (11748057_x_at) / RFU CD79A (11719716_a_at) / Fold change /veh CD79A (11719716_a_at) / RFU HIST1H1D (11736915_at) / Fold change /veh HIST1H1D (11736915_at) / RFU CASKIN2 (11723855_a_at) / Fold change /veh CASKIN2 (11723855_a_at) / RFU LOC730098 (11760151_x_at) / Fold change /veh LOC730098 (11760151_x_at) / RFU OR4N2 (11742367_at) / Fold change /veh OR4N2 (11742367_at) / RFU PRRT2 (11749266_a_at) / Fold change /veh PRRT2 (11749266_a_at) / RFU SNX32 (11753110_a_at) / Fold change /veh SNX32 (11753110_a_at) / RFU CDHR5 (11726645_a_at) / Fold change /veh CDHR5 (11726645_a_at) / RFU RCAN1 (11760418_a_at) / Fold change /veh RCAN1 (11760418_a_at) / RFU FAM167A (11723789_a_at) / Fold change /veh FAM167A (11723789_a_at) / RFU FAM26E (11764081_at) / Fold change /veh FAM26E (11764081_at) / RFU ISYNA1 (11749810_s_at) / Fold change /veh ISYNA1 (11749810_s_at) / RFU ACY1 (11761880_at) / Fold change /veh ACY1 (11761880_at) / RFU 11764098_at / Fold change /veh 11764098_at / RFU SAMD14 (11745864_x_at) / Fold change /veh SAMD14 (11745864_x_at) / RFU NPB (11741838_a_at) / Fold change /veh NPB (11741838_a_at) / RFU TMPRSS6 (11731388_a_at) / Fold change /veh TMPRSS6 (11731388_a_at) / RFU KRTAP10-2 (11738614_at) / Fold change /veh KRTAP10-2 (11738614_at) / RFU ARHGAP8 /// PRR5-ARHGAP8 (11727945_x_at) / Fold change /veh ARHGAP8 /// PRR5-ARHGAP8 (11727945_x_at) / RFU KRTAP5-7 /// NADSYN1 (11734609_at) / Fold change /veh KRTAP5-7 /// NADSYN1 (11734609_at) / RFU RASL12 (11751679_a_at) / Fold change /veh RASL12 (11751679_a_at) / RFU CDKN2B (11736163_a_at) / Fold change /veh CDKN2B (11736163_a_at) / RFU PRF1 (11729649_at) / Fold change /veh PRF1 (11729649_at) / RFU, ZNF638 /// ZNF638-IT1 / Fold change vs veh, ZNF638 /// ZNF638-IT1 / RFU, PANK3 / Fold change vs veh, PANK3 / RFU, SH3YL1 / Fold change vs veh, SH3YL1 / RFU, ZEB2 / Fold change vs veh, ZEB2 / RFU, NRIP1 / Fold change vs veh, NRIP1 / RFU, PTTG1IP / Fold change vs veh, PTTG1IP / RFU, CAPN2 / Fold change vs veh, CAPN2 / RFU, MED14 / Fold change vs veh, MED14 / RFU, SNORA58 / Fold change vs veh, SNORA58 / RFU, C1orf63 / Fold change vs veh, C1orf63 / RFU, LRRFIP1 / Fold change vs veh, LRRFIP1 / RFU, NDUFAF7 / Fold change vs veh, NDUFAF7 / RFU, SLC12A2 / Fold change vs veh, SLC12A2 / RFU, IBTK / Fold change vs veh, IBTK / RFU, ESF1 / Fold change vs veh, ESF1 / Fold change vs veh, TMEM50B / RFU, TAOK1 / Fold change vs veh, TAOK1 / RFU, ACBD3 / Fold change vs veh, ACBD3 / RFU, TMA16 / Fold change vs veh, TMA16 / RFU, RWDD3 / Fold change vs veh, RWDD3 / RFU, BCAT1 / Fold change vs veh, BCAT1 / RFU, EDEM3 / Fold change vs veh, EDEM3 / RFU, TMEM33 / Fold change vs veh, TMEM33 / RFU, WDR75 / Fold change vs veh, WDR75 / RFU, AHCTF1 / Fold change vs veh, AHCTF1 / RFU, TFRC / Fold change vs veh, TFRC / RFU, ZDHHC17 / Fold change vs veh, ZDHHC17 / RFU, NOM1 / Fold change vs veh, NOM1 / RFU, ARL8B / Fold change vs veh, ARL8B / RFU, ZBTB11 / Fold change vs veh, ZBTB11 / RFU, TAMM41 / Fold change vs veh, TAMM41 / RFU, KIAA1704 /// LOC100996395 / Fold change vs veh, KIAA1704 /// LOC100996395 / RFU, ING1 / Fold change vs veh, ING1 / RFU, TRMT61B / Fold change vs veh, TRMT61B / RFU, FUBP3 / Fold change vs veh, FUBP3 / RFU, TP53 / Fold change vs veh, TP53 / RFU, TNKS2 / Fold change vs veh, TNKS2 / RFU, ZFP14 / Fold change vs veh, ZFP14 / RFU, ACTR2 / Fold change vs veh, ACTR2 / RFU, PPP3R1 / Fold change vs veh, PPP3R1 / RFU, PIK3R1 / Fold change vs veh, PIK3R1 / RFU, HNRNPA1 / Fold change vs veh, HNRNPA1 / RFU, RNF170 / Fold change vs veh, RNF170 / RFU, ZNF28 / Fold change vs veh, ZNF28 / RFU, RNGTT / Fold change vs veh, RNGTT / RFU, OGT / Fold change vs veh, OGT / RFU, BRD1 / Fold change vs veh, BRD1 / RFU, MARS / Fold change vs veh, MARS / RFU, ZNF655 / Fold change vs veh, ZNF655 / RFU, FAHD1 / Fold change vs veh, FAHD1 / RFU, BDP1 / Fold change vs veh, BDP1 / RFU, LRRCC1 / Fold change vs veh, LRRCC1 / RFU, ARID1A / Fold change vs veh, ARID1A / RFU, ZNF146 / Fold change vs veh, ZNF146 / RFU, ZNF330 / Fold change vs veh, ZNF330 / RFU, GPN3 / Fold change vs veh, GPN3 / RFU, C9orf123 / Fold change vs veh, C9orf123 / RFU, N4BP2L2 / Fold change vs veh, N4BP2L2 / RFU, ARFIP1 / Fold change vs veh, ARFIP1 / RFU, FAM179B / Fold change vs veh, FAM179B / RFU, BCL10 / Fold change vs veh, BCL10 / RFU, UHRF1BP1L / Fold change vs veh, UHRF1BP1L / RFU, BET1 / Fold change vs veh, BET1 / RFU, CNOT2 / Fold change vs veh, CNOT2 / RFU, ZNF268 / Fold change vs veh, ZNF268 / Fold change vs veh, ZNF507 / RFU, DGCR2 / Fold change vs veh, DGCR2 / RFU, WDSUB1 / Fold change vs veh, WDSUB1 / Fold change vs veh, HSP90B1 /// MIR3652 / RFU, ADSS / Fold change vs veh, ADSS / RFU, GK / Fold change vs veh, GK / RFU, ZNF148 / Fold change vs veh, ZNF148 / RFU, TAF9 / Fold change vs veh, TAF9 / RFU, SLC1A5 / Fold change vs veh, SLC1A5 / RFU, SLMO2 / Fold change vs veh, SLMO2 / RFU, ABCC4 / Fold change vs veh, ABCC4 / RFU, LOC101060439 /// RAP1B / Fold change vs veh, LOC101060439 /// RAP1B / RFU, RFX7 / Fold change vs veh, RFX7 / RFU, GTPBP10 / Fold change vs veh, GTPBP10 / RFU, CNEP1R1 / Fold change vs veh, CNEP1R1 / RFU, BIVM-ERCC5 /// ERCC5 / Fold change vs veh, BIVM-ERCC5 /// ERCC5 / RFU, ILF3 / Fold change vs veh, ILF3 / RFU 11762660_at / Fold change /veh 11762660_at / RFU VCAN (11757783_s_at) / Fold change /veh VCAN (11757783_s_at) / RFU DDX43 (11728927_at) / Fold change /veh DDX43 (11728927_at) / RFU KRT8 (11758188_x_at) / Fold change /veh KRT8 (11758188_x_at) / RFU NKD1 (11759106_at) / Fold change /veh NKD1 (11759106_at) / RFU SRD5A1 (11742802_a_at) / Fold change /veh SRD5A1 (11742802_a_at) / RFU TPSAB1 /// TPSB2 (11721975_s_at) / Fold change /veh TPSAB1 /// TPSB2 (11721975_s_at) / RFU GSTM3 (11746129_a_at) / Fold change /veh GSTM3 (11746129_a_at) / RFU IL23R (11737362_x_at) / Fold change /veh IL23R (11737362_x_at) / RFU TMEM51 (11727254_a_at) / Fold change /veh TMEM51 (11727254_a_at) / RFU PIWIL2 (11732686_x_at) / Fold change /veh PIWIL2 (11732686_x_at) / RFU ORM1 (11744905_x_at) / Fold change /veh ORM1 (11744905_x_at) / RFU CCDC152 (11743942_at) / Fold change /veh CCDC152 (11743942_at) / RFU ECM1 (11717891_a_at) / Fold change /veh ECM1 (11717891_a_at) / RFU IL23R (11748794_a_at) / Fold change /veh IL23R (11748794_a_at) / RFU TNFAIP8L3 (11732012_x_at) / Fold change /veh TNFAIP8L3 (11732012_x_at) / RFU MBOAT4 (11741988_at) / Fold change /veh MBOAT4 (11741988_at) / RFU 11764193_at / Fold change /veh 11764193_at / RFU TMEM53 (11763286_at) / Fold change /veh TMEM53 (11763286_at) / RFU MAGEB2 (11727129_at) / Fold change /veh MAGEB2 (11727129_at) / RFU TMEM200A (11744735_a_at) / Fold change /veh TMEM200A (11744735_a_at) / RFU CCDC152 (11751479_a_at) / Fold change /veh CCDC152 (11751479_a_at) / RFU FAM211A (11726209_a_at) / Fold change /veh FAM211A (11726209_a_at) / RFU RGS16 (11746705_a_at) / Fold change /veh RGS16 (11746705_a_at) / RFU VCAN (11755009_s_at) / Fold change /veh VCAN (11755009_s_at) / RFU RHOB (11743442_s_at) / Fold change /veh RHOB (11743442_s_at) / RFU RGS16 (11720943_a_at) / Fold change /veh RGS16 (11720943_a_at) / RFU RGS16 (11720944_at) / Fold change /veh RGS16 (11720944_at) / RFU, VPS4B / Fold change vs veh, VPS4B / RFU, CREB1 / Fold change vs veh, CREB1 / RFU, DNAJC13 / Fold change vs veh, DNAJC13 / RFU, GNAQ / Fold change vs veh, GNAQ / RFU, CDK5R1 / Fold change vs veh, CDK5R1 / RFU, ZRANB3 / Fold change vs veh, ZRANB3 / RFU, CUL4A / Fold change vs veh, CUL4A / RFU, CCNY / Fold change vs veh, CCNY / RFU, UFL1 / Fold change vs veh, UFL1 / RFU, COG3 / Fold change vs veh, COG3 / RFU, DIAPH2 / Fold change vs veh, DIAPH2 / RFU, SKA2 / Fold change vs veh, SKA2 / RFU, AFF3 / Fold change vs veh, AFF3 / RFU, LMF1 / Fold change vs veh, LMF1 / RFU, IPO11 / Fold change vs veh, IPO11 / RFU, DFFB / Fold change vs veh, DFFB / RFU, FOXP1 / Fold change vs veh, FOXP1 / RFU, CARD8 / Fold change vs veh, CARD8 / RFU, STRN3 / Fold change vs veh, STRN3 / RFU, ADK / Fold change vs veh, ADK / RFU, RASSF2 / Fold change vs veh, RASSF2 / RFU, WIPF1 / Fold change vs veh, WIPF1 / RFU, LARP1B / Fold change vs veh, LARP1B / RFU, RASA1 / Fold change vs veh, RASA1 / RFU, RB1 / Fold change vs veh, RB1 / RFU, PPFIA1 / Fold change vs veh, PPFIA1 / RFU, MAT2A / Fold change vs veh, MAT2A / RFU, CCT5 / Fold change vs veh, CCT5 / RFU, WDR92 / Fold change vs veh, WDR92 / RFU, CUX1 / Fold change vs veh, CUX1 / RFU, TTC7A / Fold change vs veh, TTC7A / RFU, TMEM135 / Fold change vs veh, TMEM135 / RFU, DEPTOR / Fold change vs veh, DEPTOR / RFU, CPM / Fold change vs veh, CPM / RFU, DNAJB6 / Fold change vs veh, DNAJB6 / RFU, CACNA2D3 / Fold change vs veh, CACNA2D3 / RFU, DTX4 / Fold change vs veh, DTX4 / RFU, TFCP2 / Fold change vs veh, TFCP2 / RFU, GMCL1 /// GMCL1P1 / Fold change vs veh, GMCL1 /// GMCL1P1 / RFU, AEBP2 / Fold change vs veh, AEBP2 / RFU, SNHG1 /// SNORD22 /// SNORD25 /// SNORD26 /// SNORD27 /// SNORD28 /// SNORD29 /// SNORD31 / Fold change vs veh, SNHG1 /// SNORD22 /// SNORD25 /// SNORD26 /// SNORD27 /// SNORD28 /// SNORD29 /// SNORD31 / Fold change (Aza/veh), C12orf56 (ProbeSet 11735607_a_at) / Fold change (ACY-1035/veh), C12orf56 (ProbeSet 11735607_a_at) / Fold change (Aza/veh), FGFR1OP (ProbeSet 11751329_s_at) / Fold change (ACY-1035/veh), FGFR1OP (ProbeSet 11751329_s_at) / Fold change (Aza/veh), VPS36 (ProbeSet 11739960_a_at) / Fold change (ACY-1035/veh), VPS36 (ProbeSet 11739960_a_at) / RFU SYPL1 (11715823_x_at) / Fold change /veh SYPL1 (11715823_x_at) / RFU IGFBP7 (11715501_s_at) / Fold change /veh IGFBP7 (11715501_s_at) / RFU REEP3 (11722064_at) / Fold change /veh REEP3 (11722064_at) / RFU IGLL1 (11728026_x_at) / Fold change /veh IGLL1 (11728026_x_at): dose or concentration left out as unconfirmed
Details: ProbeSet 11724526_at; LIST B

Compound: Nc1ncn([C@@H]2O[C@H](CO)[C@@H](O)[C@H]2O)c(=O)n1 [azacitidine]
- Fold change vs veh, FAHD1: 0.84
